Laboratory results: patent US9562899B2, “Method of detecting OXA-048 carbapenemase producing bacteria” (BIOMÉRIEUX, priority 2012, dated 2017)
Like-named read-outs stand apart in the source and are kept apart here.

Key:
[1] = tested on: KPC strains; assay: Temocillin MIC with EDTA in the medium (Example 2); format: cell-based, Enterobacteriaceae; settings: Ex 2, MIC in mg/l
Excerpt: (§1) Optimization of the Detection Specificity by Introducing Specific Inhibitors Inhibition of Class B Strains (NDM, VIM, IMP) by Adding EDTA
(§2) Identical to that used to determine the temocillin MICs by agar dilution (example 1).
(§3) For each temocillin concentration, the following concentrations of active EDTA will be tested in the form of disodium EDTA: 0, 1.77, 2.12, 2.47 and 2.83 mmol/l.
(§4) Method: identical to the method used in example 1.

[2] = tested on: OXA-48 strains; assay: Temocillin MIC with EDTA in the medium (Example 2); format: cell-based, Enterobacteriaceae; settings: Ex 2, MIC in mg/l
Excerpt: as §1, §2, §3, §4

[3] = tested on: strains with impermeability-mediated resistance (IR); format: cell-based, Enterobacteriaceae; settings: Ex 2, MIC in mg/l
Excerpt: as §1, §2, §3, §4

[4] = tested on: OXA-48 strains; settings: Livermore et al., cited from earlier work

CO[C@@]1(NC(=O)C(C(=O)O)c2ccsc2)C(=O)N2[C@@H](C(=O)O)C(C)(C)S[C@@H]21 (stereo partly shown) [temocillin]
2: No. of OXA-48 strains with MIC 300 ([2]; 2.47 mmol/l of active EDTA) | No. of IR strains with MIC 150 ([3]; 0 mmol/l of EDTA) | No. of IR strains with MIC 200 ([3]; 2.12 mmol/l of active EDTA) | No. of IR strains with MIC 150 ([3]; 2.47 mmol/l of active EDTA) | No. of IR strains with MIC 200 ([3]; 2.47 mmol/l of active EDTA)
3: No. of OXA-48 strains with MIC 300 ([2]; 0 mmol/l of EDTA) | No. of OXA-48 strains with MIC 300 ([2]; 2.83 mmol/l of active EDTA) | No. of OXA-48 strains with MIC ≦50 ([2]; 2.83 mmol/l of active EDTA) | No. of IR strains with MIC 150 ([3]; 2.12 mmol/l of active EDTA) | No. of IR strains with MIC 150 ([3]; 2.83 mmol/l of active EDTA)
15: No. of OXA-48 strains with MIC >300 ([2]; 1.77 mmol/l of active EDTA) | No. of OXA-48 strains with MIC >300 ([2]; 2.12 mmol/l of active EDTA)
13: No. of OXA-48 strains with MIC >300 ([2]; 2.47 mmol/l of active EDTA)
0: No. of KPC strains with MIC 200 ([1]; 0 mmol/l of EDTA) | No. of KPC strains with MIC 300 ([1]; 0 mmol/l of EDTA) | No. of KPC strains with MIC 150 ([1]; 1.77 mmol/l of active EDTA) | No. of KPC strains with MIC 200 ([1]; 1.77 mmol/l of active EDTA) | No. of KPC strains with MIC 300 ([1]; 1.77 mmol/l of active EDTA) | No. of KPC strains with MIC 150 ([1]; 2.12 mmol/l of active EDTA) | No. of KPC strains with MIC 200 ([1]; 2.12 mmol/l of active EDTA) | No. of KPC strains with MIC 300 ([1]; 2.12 mmol/l of active EDTA) | No. of KPC strains with MIC 150 ([1]; 2.47 mmol/l of active EDTA) | No. of KPC strains with MIC 200 ([1]; 2.47 mmol/l of active EDTA) | No. of KPC strains with MIC 300 ([1]; 2.47 mmol/l of active EDTA) | No. of KPC strains with MIC 150 ([1]; 2.83 mmol/l of active EDTA) | No. of KPC strains with MIC 200 ([1]; 2.83 mmol/l of active EDTA) | No. of KPC strains with MIC 300 ([1]; 2.83 mmol/l of active EDTA) | No. of KPC strains with MIC >300 ([1]; 2.83 mmol/l of active EDTA) | No. of OXA-48 strains with MIC 150 ([2]; 0 mmol/l of EDTA) | No. of OXA-48 strains with MIC 200 ([2]; 0 mmol/l of EDTA) | No. of OXA-48 strains with MIC ≦50 ([2]; 0 mmol/l of EDTA) | No. of OXA-48 strains with MIC 150 ([2]; 1.77 mmol/l of active EDTA) | No. of OXA-48 strains with MIC 200 ([2]; 1.77 mmol/l of active EDTA) | No. of OXA-48 strains with MIC 300 ([2]; 1.77 mmol/l of active EDTA) | No. of OXA-48 strains with MIC ≦50 ([2]; 1.77 mmol/l of active EDTA) | No. of OXA-48 strains with MIC 150 ([2]; 2.12 mmol/l of active EDTA) | No. of OXA-48 strains with MIC 200 ([2]; 2.12 mmol/l of active EDTA) | No. of OXA-48 strains with MIC 300 ([2]; 2.12 mmol/l of active EDTA) | No. of OXA-48 strains with MIC ≦50 ([2]; 2.12 mmol/l of active EDTA) | No. of OXA-48 strains with MIC 150 ([2]; 2.47 mmol/l of active EDTA) | No. of OXA-48 strains with MIC 200 ([2]; 2.47 mmol/l of active EDTA) | No. of OXA-48 strains with MIC ≦50 ([2]; 2.47 mmol/l of active EDTA) | No. of OXA-48 strains with MIC 200 ([2]; 2.83 mmol/l of active EDTA) | No. of IR strains with MIC 200 ([3]; 0 mmol/l of EDTA) | No. of IR strains with MIC 300 ([3]; 0 mmol/l of EDTA) | No. of IR strains with MIC >300 ([3]; 0 mmol/l of EDTA) | No. of IR strains with MIC >300 ([3]; 1.77 mmol/l of active EDTA) | No. of IR strains with MIC >300 ([3]; 2.12 mmol/l of active EDTA) | No. of IR strains with MIC 300 ([3]; 2.47 mmol/l of active EDTA) | No. of IR strains with MIC >300 ([3]; 2.47 mmol/l of active EDTA) | No. of IR strains with MIC 300 ([3]; 2.83 mmol/l of active EDTA) | No. of IR strains with MIC >300 ([3]; 2.83 mmol/l of active EDTA)
≥ 256 µg/mL: minimum inhibitory concentration (MIC) ([4]; resistant strains, growth at final concentration tested of 128 mg/l)
4: No. of IR strains with MIC 150 ([3]; 1.77 mmol/l of active EDTA) | No. of IR strains with MIC ≦50 ([3]; 1.77 mmol/l of active EDTA) | No. of IR strains with MIC ≦50 ([3]; 2.12 mmol/l of active EDTA)
12: No. of OXA-48 strains with MIC >300 ([2]; 0 mmol/l of EDTA)
6: No. of IR strains with MIC ≦50 ([3]; 2.47 mmol/l of active EDTA) | No. of IR strains with MIC ≦50 ([3]; 2.83 mmol/l of active EDTA)
18/19: strains resistant to temocillin ([4]; OXA-48 strains)
1: No. of KPC strains with MIC >300 ([1]; 0 mmol/l of EDTA) | No. of KPC strains with MIC >300 ([1]; 1.77 mmol/l of active EDTA) | No. of KPC strains with MIC >300 ([1]; 2.12 mmol/l of active EDTA) | No. of KPC strains with MIC >300 ([1]; 2.47 mmol/l of active EDTA) | No. of OXA-48 strains with MIC 150 ([2]; 2.83 mmol/l of active EDTA) | No. of IR strains with MIC 200 ([3]; 1.77 mmol/l of active EDTA) | No. of IR strains with MIC 300 ([3]; 1.77 mmol/l of active EDTA) | No. of IR strains with MIC 300 ([3]; 2.12 mmol/l of active EDTA) | No. of IR strains with MIC 200 ([3]; 2.83 mmol/l of active EDTA)
8: No. of OXA-48 strains with MIC >300 ([2]; 2.83 mmol/l of active EDTA) | No. of IR strains with MIC ≦50 ([3]; 0 mmol/l of EDTA)
19: No. of KPC strains with MIC ≦50 ([1]; 2.83 mmol/l of active EDTA)
18: No. of KPC strains with MIC ≦50 ([1]; 0 mmol/l of EDTA) | No. of KPC strains with MIC ≦50 ([1]; 1.77 mmol/l of active EDTA) | No. of KPC strains with MIC ≦50 ([1]; 2.12 mmol/l of active EDTA) | No. of KPC strains with MIC ≦50 ([1]; 2.47 mmol/l of active EDTA)
